Measured values from ChEMBL document CHEMBL1143069, “Methoxylation of 3',4'-aromatic side chains improves P-glycoprotein inhibitory and multidrug resistance reversal activities of 7,8-pyranocoumarin against cancer cells” (Bioorg Med Chem, 2008).
Active and inactive are the calls of the source. No cut-off for these calls is given here.

Assays:
[1] = tested on: K562; conditions: Homo sapiens
[2] = tested on: K562; conditions: Homo sapiens; remark: listed apart in the source
[3] = tested on: K562; conditions: Homo sapiens; remark: listed apart in the source
[4] = tested on: HepG2; assay: Growth inhibition of human HepG2 cells after 72 hrs by MTT assay; assay type: functional, cell-based; conditions: HepG2, 72 h
[5] = tested on: K562; assay: Growth inhibition of human K562 cells after 72 hrs by SRB assay; assay type: functional, cell-based; conditions: K562, 72 h
[6] = tested on: HepG2; assay: Growth inhibition of doxorubicin resistant human HepG2 cells after 72 hrs by MTT assay; assay type: functional, cell-based; conditions: HepG2, 72 h
[7] = tested on: K562; assay: Growth inhibition of doxorubicin-resistant human K562 cells after 72 hrs by SRB assay; assay type: functional, cell-based; conditions: K562, 72 h
[8] = tested on: K562; assay: Effect on Pgp expression level in doxorubicin resistant human K562 cells at 8 uM after 72 hrs by Western blot; assay type: functional, cell-based
[9] = Growth inhibition of human KB V1 cells after 72 hrs by MTT assay; assay type: functional, cell-based; conditions: KB-V1, 72 h
[10] = tested on: HepG2; assay: Effect on Pgp expression level in doxorubicin resistant human HepG2 cells at 8 uM after 72 hrs by Western blot; assay type: functional, cell-based
[11] = tested on: K562; assay: Inhibition of human Pgp-ATPase activity in doxorubicin-resistant K562 cells; assay type: cell-based
[12] = tested on: HepG2; assay: Effect on Pgp expression level in doxorubicin resistant human HepG2 cells at 4 uM after 72 hrs by Western blot; assay type: functional, cell-based
[13] = tested on: HepG2; assay: Inhibition of Pgp mediated Hoechst 33342 efflux in doxorubicin-resistant human HepG2 cells assessed as increase in cellular fluorescence of substrate at 5 uM; assay type: cell-based; parameters: scale not given: the % may be the effect or the level left
[14] = tested on: HepG2; assay: Increase in monoclonal antibody UIC2 binding to human Pgp in doxorubicin-resistant human HepG2 cells; assay type: cell-based
[15] = tested on: K562; assay: Effect on Pgp expression level in doxorubicin resistant human K562 cells at 20 uM after 72 hrs by Western blot; assay type: functional, cell-based
[16] = tested on: K562; assay: Inhibition of Pgp mediated Hoechst 33342 efflux in doxorubicin-resistant human K562 cells assessed as increase in cellular fluorescence of substrate at 5 uM; assay type: cell-based; parameters: scale not given: the % may be the effect or the level left
[17] = tested on: KB-V1; assay: Effect on Pgp expression level in human KB V1 cells at 4 uM after 72 hrs by Western blot; assay type: functional, cell-based
[18] = Growth inhibition of human KB3-1 cells after 72 hrs by MTT assay; assay type: functional, cell-based; conditions: KB 3-1, 72 h
[19] = tested on: KB-V1; assay: Effect on Pgp expression level in human KB V1 cells at 20 uM after 72 hrs by Western blot; assay type: functional, cell-based
[20] = tested on: K562; assay: Effect on Pgp expression level in doxorubicin resistant human K562 cells at 4 uM after 72 hrs by Western blot; assay type: functional, cell-based
[21] = tested on: HepG2; assay: Effect on Pgp expression level in doxorubicin resistant human HepG2 cells at 20 uM after 72 hrs by Western blot; assay type: functional, cell-based
[22] = tested on: K562; assay: Inhibition of Pgp mediated Hoechst 33342 efflux in doxorubicin-resistant human K562 cells assessed as increase in cellular fluorescence of substrate at 10 uM; assay type: cell-based; parameters: scale not given: the % may be the effect or the level left
[23] = tested on: K562; assay: Inhibition of Pgp mediated Rh123 efflux in doxorubicin-resistant human K562 cells assessed as increase in cellular fluorescence of substrate at 10 uM; assay type: cell-based; parameters: scale not given: the % may be the effect or the level left
[24] = tested on: HepG2; assay: Inhibition of Pgp mediated Hoechst 33342 efflux in doxorubicin-resistant human HepG2 cells assessed as increase in cellular fluorescence of substrate at 10 uM; assay type: cell-based; parameters: scale not given: the % may be the effect or the level left
[25] = tested on: HepG2; assay: Inhibition of Pgp mediated Rh123 efflux in doxorubicin-resistant human HepG2 cells assessed as increase in cellular fluorescence of substrate at 10 uM; assay type: cell-based; parameters: scale not given: the % may be the effect or the level left

CC(=O)[C@H]1CC[C@H]2[C@@H]3CCC4=CC(=O)CC[C@]4(C)[C@H]3CC[C@]12C
Km [1]: 9.97 µM | Km [2]: 6.57 µM

COc1ccc(CCN(C)CCC[C@](C#N)(c2ccc(OC)c(OC)c2)C(C)C)cc1OC
Km [1]: 0.7 µM | Km [3]: 0.89 µM

COc1ccc(/C=C/C(=O)OC2c3c(ccc4ccc(=O)oc34)OC(C)(C)C2OC(=O)/C=C/c2ccc(OC)cc2)cc1 (racemic)
IC50 [4]: 55200 nM | IC50 [5]: 67.6 µM | IC50 [6]: 72.6 µM | IC50 [7]: 81 µM

COc1ccc(/C=C/C(=O)OC2c3c(ccc4ccc(=O)oc34)OC(C)(C)C2OC(=O)/C=C/c2ccc(OC)c(OC)c2)cc1OC (racemic)
IC50 [4]: 54700 nM | Activity [8]: inactive | IC50 [9]: 32.3 µM | Activity [10]: inactive | IC50 [5]: 54.4 µM | IC50 [6]: 76.3 µM | Activity [11]: Active | Activity [12]: inactive | Activity [13]: 200% | Activity [14]: Active | Activity [15]: inactive | IC50 [7]: 70 µM | Activity [16]: 200% | Activity [17]: inactive | IC50 [18]: 61.7 µM | Activity [19]: inactive | Activity [20]: inactive | Activity [21]: inactive

CC1(C)Oc2ccc3ccc(=O)oc3c2C(OC(=O)/C=C/c2ccccc2)C1OC(=O)/C=C/c1ccccc1 (racemic)
Activity [22]: 100% | Activity [11]: Active | Activity [14]: inactive | Activity [23]: 20% | Activity [24]: 100% | Activity [25]: 50%

COc1ccc(CC(N)C(=O)N[C@H]2[C@@H](O)[C@H](n3cnc4c(N(C)C)ncnc43)O[C@@H]2CO)cc1 (single isomer, unassigned) [PUROMYCIN]
IC50 [4]: 230 nM | IC50 [9]: 79.3 µM | IC50 [5]: 0.22 µM | IC50 [6]: 83.9 µM | IC50 [7]: 26.8 µM | IC50 [18]: 0.21 µM

COc1cccc2c1C(=O)c1c(O)c3c(c(O)c1C2=O)C[C@@](O)(C(=O)CO)C[C@@H]3O[C@H]1C[C@H](N)[C@H](O)[C@H](C)O1 [DOXORUBICIN]
IC50 [9]: 32 µM | IC50 [18]: 0.18 µM

CC(=O)O[C@H]1C(=O)[C@@]2(C)[C@H]([C@H](OC(=O)c3ccccc3)[C@]3(O)C[C@H](OC(=O)[C@H](O)[C@@H](NC(=O)c4ccccc4)c4ccccc4)C(C)=C1C3(C)C)[C@]1(OC(C)=O)CO[C@@H]1C[C@@H]2O [PACLITAXEL]
IC50 [4]: 7 nM | IC50 [9]: 8 µM | IC50 [6]: 4.15 µM | IC50 [7]: 4.14 µM | IC50 [18]: 0.002 µM

CC[C@]1(O)C[C@@H]2CN(CCc3c([nH]c4ccccc34)[C@@](C(=O)OC)(c3cc4c(cc3OC)N(C)[C@H]3[C@@](O)(C(=O)OC)[C@H](OC(C)=O)[C@]5(CC)C=CCN6CC[C@]43[C@@H]65)C2)C1 [VINBLASTINE]
IC50 [4]: 0.07 nM | IC50 [9]: 1.04 µM | IC50 [5]: 0.00088 µM | IC50 [6]: 0.44 µM | IC50 [7]: 0.17 µM | IC50 [18]: 0.00011 µM
